Data reported in paper PMC10287555, “Camonsertib in DNA damage response-deficient advanced solid tumors: phase 1 trial results” (Nature Medicine, 2023).
Like-named read-outs stand apart in the source and are kept apart here.

Assay: Plasma pharmacokinetics, cycle 1 day 1 (LC–MS/MS, non-compartmental analysis)
Format: in vivo, human
Conditions: for AUC(0-t) / Cmax / Tmax / AUC(0-inf) / half-life: human, plasma, oral; for Cmax: read-out: Cmax, geometric mean; for Tmax: read-out: Tmax, median; for AUC(0-inf): read-out: AUC0-INF, geometric mean
Protocol: The plasma levels from cycle 1, day 1 of camonsertib were quantified using a validated liquid chromatography tandem–mass spectrometry (LC–MS/MS) method. […] All PK parameters were calculated using actual sampling times. Mean plasma concentration time profiles at given dose levels and regimens were plotted on semi-logarithmic plots using nominal times.

[1] = Dose 5 mg, Tau 24 hr, cycle 1 day 1
[2] = Dose 10 mg, Tau 24 hr, cycle 1 day 1
[3] = Dose 20 mg, Tau 24 hr, cycle 1 day 1
[4] = Dose 40 mg, Tau 12 hr, cycle 1 day 1
[5] = Dose 40 mg, Tau 24 hr, cycle 1 day 1
[6] = Dose 60 mg, Tau 12 hr, cycle 1 day 1
[7] = Dose 80 mg, Tau 12 hr, cycle 1 day 1
[8] = Dose 80 mg, Tau 24 hr, cycle 1 day 1
[9] = Dose 100 mg, Tau 24 hr, cycle 1 day 1
[10] = Dose 120 mg, Tau 24 hr, cycle 1 day 1
[11] = Dose 160 mg, Tau 24 hr, cycle 1 day 1
[12] = Dose 200 mg, Tau 24 hr, cycle 1 day 1
[13] = 10 mg, Tau 24 hr, cycle 1 day 1
[14] = 20 mg, Tau 24 hr, cycle 1 day 1
[15] = 40 mg, Tau 12 hr, cycle 1 day 1
[16] = 40 mg, Tau 24 hr, cycle 1 day 1
[17] = 60 mg, Tau 12 hr, cycle 1 day 1
[18] = 80 mg, Tau 12 hr, cycle 1 day 1
[19] = 80 mg, Tau 24 hr, cycle 1 day 1
[20] = 100 mg, Tau 24 hr, cycle 1 day 1
[21] = 120 mg, Tau 24 hr, cycle 1 day 1
[22] = 160 mg, Tau 24 hr, cycle 1 day 1
[23] = 200 mg, Tau 24 hr, cycle 1 day 1

SMILES: C[C@@H]1COCCN1c1cc([C@]2(O)C[C@H]3CC[C@@H](C2)O3)c2cnn(-c3cc[nH]n3)c2n1 [camonsertib]
- AUC0-t/dose, geometric mean [1]: 0.427 µg·h/mL/mg
- Cmax/dose, geometric mean [1]: 0.098 µg/mL/mg
- AUC0-t/dose, geometric mean [2]: 0.567 µg·h/mL/mg
- Cmax/dose, geometric mean [2]: 0.105 µg/mL/mg
- AUC0-t/dose, geometric mean [3]: 0.239 µg·h/mL/mg
- Cmax/dose, geometric mean [3]: 0.04 µg/mL/mg
- AUC0-t/dose, geometric mean [4]: 1.003 µg·h/mL/mg
- Cmax/dose, geometric mean [4]: 0.095 µg/mL/mg
- AUC0-t/dose, geometric mean [5]: 0.329 µg·h/mL/mg
- Cmax/dose, geometric mean [5]: 0.029 µg/mL/mg
- AUC0-t/dose, geometric mean [6]: 0.444 µg·h/mL/mg
- Cmax/dose, geometric mean [6]: 0.055 µg/mL/mg
- AUC0-t/dose, geometric mean [7]: 0.527 µg·h/mL/mg
- Cmax/dose, geometric mean [7]: 0.038 µg/mL/mg
- AUC0-t/dose, geometric mean [8]: 0.254 µg·h/mL/mg
- Cmax/dose, geometric mean [8]: 0.071 µg/mL/mg
- AUC0-t/dose, geometric mean [9]: 0.3 µg·h/mL/mg
- Cmax/dose, geometric mean [9]: 0.052 µg/mL/mg
- AUC0-t/dose, geometric mean [10]: 0.246 µg·h/mL/mg
- Cmax/dose, geometric mean [10]: 0.044 µg/mL/mg
- AUC0-t/dose, geometric mean [11]: 0.256 µg·h/mL/mg
- Cmax/dose, geometric mean [11]: 0.046 µg/mL/mg
- AUC0-t/dose, geometric mean [12]: 0.273 µg·h/mL/mg
- Cmax/dose, geometric mean [12]: 0.047 µg/mL/mg
- Accumulation (after repeated dosing): no accumulation
- Increases in Cmax and AUC with dose (dose range 5–200 mg QD): linear
- AUC(0-t) (5 mg, Tau 24 hr, cycle 1 day 1, read-out: AUC0-12, geometric mean): 1800 ng·h/mL
- AUC(0-t) (5 mg, Tau 24 hr, cycle 1 day 1, read-out: AUC0-t, geometric mean): 2100 ng·h/mL
- Cmax (5 mg, Tau 24 hr, cycle 1 day 1): 500 ng/mL
- Tmax (5 mg, Tau 24 hr, cycle 1 day 1): 1.17 h
- AUC(0-t) (10 mg, Tau 24 hr, cycle 1 day 1, read-out: AUC0-12, geometric mean): 4400 ng·h/mL
- AUC(0-t) (10 mg, Tau 24 hr, cycle 1 day 1, read-out: AUC0-t, geometric mean): 5700 ng·h/mL
- Cmax [13]: 1100 ng/mL
- Tmax [13]: 1 h
- AUC(0-t) (20 mg, Tau 24 hr, cycle 1 day 1, read-out: AUC0-12, geometric mean): 2800 ng·h/mL
- AUC(0-t) (20 mg, Tau 24 hr, cycle 1 day 1, read-out: AUC0-t, geometric mean): 4800 ng·h/mL
- Cmax [14]: 800 ng/mL
- Tmax [14]: 10.7 h
- AUC(0-t) (40 mg, Tau 12 hr, cycle 1 day 1, read-out: AUC0-12, geometric mean): 23400 ng·h/mL
- AUC(0-t) (40 mg, Tau 12 hr, cycle 1 day 1, read-out: AUC0-t, geometric mean): 40100 ng·h/mL
- Cmax [15]: 3800 ng/mL
- Tmax [15]: 1.96 h
- AUC(0-t) (40 mg, Tau 24 hr, cycle 1 day 1, read-out: AUC0-12, geometric mean): 4700 ng·h/mL
- AUC(0-t) (40 mg, Tau 24 hr, cycle 1 day 1, read-out: AUC0-t, geometric mean): 13200 ng·h/mL
- Cmax [16]: 1200 ng/mL
- Tmax [16]: 22.1 h
- AUC(0-t) (60 mg, Tau 12 hr, cycle 1 day 1, read-out: AUC0-12, geometric mean): 16900 ng·h/mL
- AUC(0-t) (60 mg, Tau 12 hr, cycle 1 day 1, read-out: AUC0-t, geometric mean): 26600 ng·h/mL
- Cmax [17]: 3300 ng/mL
- Tmax [17]: 1.55 h
- AUC(0-t) (80 mg, Tau 12 hr, cycle 1 day 1, read-out: AUC0-12, geometric mean): 21400 ng·h/mL
- AUC(0-t) (80 mg, Tau 12 hr, cycle 1 day 1, read-out: AUC0-t, geometric mean): 42100 ng·h/mL
- Cmax [18]: 3000 ng/mL
- Tmax [18]: 2.17 h
- AUC(0-t) (80 mg, Tau 24 hr, cycle 1 day 1, read-out: AUC0-12, geometric mean): 18700 ng·h/mL
- AUC(0-t) (80 mg, Tau 24 hr, cycle 1 day 1, read-out: AUC0-t, geometric mean): 20300 ng·h/mL
- Cmax [19]: 5700 ng/mL
- Tmax [19]: 1 h
- AUC(0-t) (100 mg, Tau 24 hr, cycle 1 day 1, read-out: AUC0-12, geometric mean): 24800 ng·h/mL
- AUC(0-t) (100 mg, Tau 24 hr, cycle 1 day 1, read-out: AUC0-t, geometric mean): 30200 ng·h/mL
- Cmax [20]: 5200 ng/mL
- Tmax [20]: 1.54 h
- AUC(0-t) (120 mg, Tau 24 hr, cycle 1 day 1, read-out: AUC0-12, geometric mean): 23900 ng·h/mL
- AUC(0-t) (120 mg, Tau 24 hr, cycle 1 day 1, read-out: AUC0-t, geometric mean): 29500 ng·h/mL
- Cmax [21]: 5300 ng/mL
- Tmax [21]: 2.03 h
- AUC(0-t) (160 mg, Tau 24 hr, cycle 1 day 1, read-out: AUC0-12, geometric mean): 34800 ng·h/mL
- AUC(0-t) (160 mg, Tau 24 hr, cycle 1 day 1, read-out: AUC0-t, geometric mean): 41000 ng·h/mL
- Cmax [22]: 7300 ng/mL
- Tmax [22]: 1.21 h
- AUC(0-t) (200 mg, Tau 24 hr, cycle 1 day 1, read-out: AUC0-12, geometric mean): 44700 ng·h/mL
- AUC(0-t) (200 mg, Tau 24 hr, cycle 1 day 1, read-out: AUC0-t, geometric mean): 54600 ng·h/mL
- Cmax [23]: 9500 ng/mL
- Tmax [23]: 1 h
- AUC(0-inf) [1]: 2300 ng·h/mL
- half-life (Dose 5 mg, Tau 24 hr, cycle 1 day 1, read-out: Half-life, geometric mean (converted)): 5.87 h
- AUC(0-inf) [2]: 6600 ng·h/mL
- half-life (Dose 10 mg, Tau 24 hr, cycle 1 day 1, read-out: Half-life, geometric mean (converted)): 8.5 h
- AUC(0-inf) [3]: 3100 ng·h/mL
- half-life (Dose 20 mg, Tau 24 hr, cycle 1 day 1, read-out: Half-life, geometric mean (converted)): 4.18 h
- AUC(0-inf) [4]: 153000 ng·h/mL
- AUC(0-inf) [6]: 66100 ng·h/mL
- AUC(0-inf) [8]: 21000 ng·h/mL
- half-life (Dose 80 mg, Tau 24 hr, cycle 1 day 1, read-out: Half-life, geometric mean (converted)): 4.08 h
- AUC(0-inf) [9]: 32300 ng·h/mL
- half-life (Dose 100 mg, Tau 24 hr, cycle 1 day 1, read-out: Half-life, geometric mean (converted)): 5.67 h
- AUC(0-inf) [10]: 31300 ng·h/mL
- half-life (Dose 120 mg, Tau 24 hr, cycle 1 day 1, read-out: Half-life, geometric mean (converted)): 6.21 h
- AUC(0-inf) [11]: 45900 ng·h/mL
- half-life (Dose 160 mg, Tau 24 hr, cycle 1 day 1, read-out: Half-life, geometric mean (converted)): 5.97 h
- AUC(0-inf) [12]: 58900 ng·h/mL
- half-life (Dose 200 mg, Tau 24 hr, cycle 1 day 1, read-out: Half-life, geometric mean (converted)): 6.31 h
- half-life (across all QD dose levels, read-out: Median half-life (converted)): 5.8 h
- Doses at which plasma exposures achieved predicted efficacious exposures (in vivo): > 100 mg QD
- PK variability (intra-patient and inter-patient): low intra-patient and inter-patient variability
